# Measurements from ChEMBL document CHEMBL1141051, “Antiviral 6-amino-quinolones: molecular basis for potency and selectivity” (Bioorg Med Chem Lett, 2005).
# Columns and labels:
# [1] = molecular target: Nucleic Acid; assay: Effective concentration required for binding to tRNA using electrophoretic mobility shift assays done at 25 degree C with pH 7.5; type: nucleic-acid assay, Human immunodeficiency virus 1
# [2] = molecular target: Nucleic Acid; assay: Effective concentration required for binding to wild-type TAR using electrophoretic mobility shift assays done at 25 degree C with pH 7.5; type: nucleic-acid assay, Human immunodeficiency virus 1
# [3] = molecular target: Nucleic Acid; assay: Effective concentration required for binding to mutant loopless TAR using electrophoretic mobility shift assays done at 25 degree C with pH 7.5; type: nucleic-acid assay, Human immunodeficiency virus 1
# [4] = molecular target: T1, Protein Tat (Human immunodeficiency virus type 1 group M subtype B (isolate HXB2)(HIV-1)) (UniProt P04608); assay: Binding constant (K) against Tat/TAR using 1:1 quinolone/Mg2+ complex done at 25 degree C with pH 7.5; conditions: Human immunodeficiency virus 1
# T1 sequence (whole entry): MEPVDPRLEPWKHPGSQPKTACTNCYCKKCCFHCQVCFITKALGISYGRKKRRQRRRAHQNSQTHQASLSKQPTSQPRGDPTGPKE
# [5] = molecular target: Nucleic Acid; assay: Effective concentration required for binding to mutant double stranded TAR using electrophoretic mobility shift assays done at 25 degree C with pH 7.5; type: nucleic-acid assay, Human immunodeficiency virus 1
SMILES,EC50 [1],EC50 [2],EC50 [3],K [4],EC50 [5]
Cn1cc(C(=O)O)c(=O)c2cc(N)c(N3CCN(c4ccccn4)CC3)cc21,> 50000 nM,210 nM,320 nM,6650 M⁻¹,–
O=C(O)c1cn(C2CC2)c2cc(N3CCNCC3)c(F)cc2c1=O,–,–,–,790 M⁻¹,–
Nc1cc2c(=O)c(C(=O)O)cn(C3CC3)c2cc1N1CCN(c2cccc(C(F)(F)F)c2)CC1,130 nM,190 nM,–,13600 M⁻¹,50 nM
